Measured values taken from US7999069B2, “EphB receptor-binding peptides” (Sanford-Burnham Medical Research Institute, priority 2005, dated 2011).
No end group written: not given here.

Key:
EphB receptors = assay: Peptide pull-down of endogenous EphB receptors from lysates; type: binding; conditions: peptide on streptavidin beads; mouse brain or cultured cell lysates
Description: The ability of the peptides to bind in a stable manner, which is important for both targeting and competitive inhibition, was tested in pull-down experiments. For peptide pull-down experiments, cells in 60 cm plates at 70% confluency or adult mouse brain tissue were solubilized in pull-down buffer (50 mM HEPES pH 7.5, 150 mM NaCl, 10% glycerol, 1% Triton-X100, 5 mM KCl and 1 mM EDTA). Three μg of biotinylated peptide were incubated for 45-90 min with 5 μl streptavidin agarose beads (Sigma), unbound peptide was washed away, and the beads were incubated with the cell lysates for 45-90 min. Proteins bound to the beads were separated by SDS-polyacrylamide gel electrophoresis and probed by immunoblotting with EphB1, EphB2, or EphB4 antibodies. The EphB1 antibody (Santa Cruz) was detected with a secondary anti-goat IgG peroxidase-conjugated antibody (BioRad Laboratories). The EphB2 and EphB4 antibodies were affinity-purified polyclonal antibodies to GST fusion proteins containing approximately 100 amino acids from the carboxy-terminal tails of the EphB2 or EphB4 receptors (Noren, N. K. et al. 2004 PNAS USA 101:5583-5588; Holash, J. A. & Pasquale, E. B. 1995 Devel Biol 172:683-693) and were detected with a secondary anti-rabbit IgG peroxidase-conjugated antibody (Amersham Biosciences). […]

EphB1 = target: T1, EphB1 (Homo sapiens, UniProt P54762); assay: Peptide competition of phage binding to EphB1 ectodomain
T1 construct: panned on the ectodomains of EphB1, EphB2, or EphB4 fused to human Fc
T1 sequence (P54762 18-540 limits assumed): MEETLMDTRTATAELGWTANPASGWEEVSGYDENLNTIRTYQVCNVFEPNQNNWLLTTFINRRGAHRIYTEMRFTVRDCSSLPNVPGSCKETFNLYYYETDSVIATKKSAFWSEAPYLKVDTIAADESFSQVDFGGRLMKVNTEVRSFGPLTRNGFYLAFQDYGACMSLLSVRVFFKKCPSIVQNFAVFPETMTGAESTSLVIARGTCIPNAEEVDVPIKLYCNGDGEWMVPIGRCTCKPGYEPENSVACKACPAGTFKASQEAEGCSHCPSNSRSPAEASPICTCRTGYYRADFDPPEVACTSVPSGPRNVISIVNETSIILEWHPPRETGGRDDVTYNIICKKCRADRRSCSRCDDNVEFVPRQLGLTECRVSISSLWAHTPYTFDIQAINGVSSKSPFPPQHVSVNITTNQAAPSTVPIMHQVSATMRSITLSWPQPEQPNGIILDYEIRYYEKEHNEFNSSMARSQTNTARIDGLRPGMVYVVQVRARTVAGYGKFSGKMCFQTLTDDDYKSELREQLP
Description: To measure peptide competition of phage binding to EphB receptors, Ni-NTA wells coated with Eph ectodomain Fc were incubated for 30 min at room temperature with various peptide concentrations in binding buffer (100 μl/well). Concentrated stocks of phage clones diluted between 1:500 and 1:10,000 in binding buffer were then added to the wells for a 1 hr at room temperature. Wells were washed and bound phage were detected using the anti-M13 antibody. A biotinylated control peptide with sequence unrelated to the sequences of the Eph-binding peptides ([…], SEQ ID NO: 40) was used as a negative control in some of the experiments, as indicated in the figure legends.
[…]. The SNEW peptide at 25 μM inhibited EphB2 binding of most phage clones isolated by panning on EphB2 (FIGS. 2E and G). The only exceptions were the IHWP, DHRWV and WHWT clones. However, binding of these clones was inhibited by 50 μM SNEW peptide, particularly when the phage concentration was halved. […] Bound phage were detected using anti-M13 phage antibody coupled to HRP and phage binding in the presence of peptide was normalized to phage binding in the absence of peptide. Error bars indicate standard deviation from duplicate measurements, and were calculated taking into account propagation of errors.

## EWLSPNLAPSVR [SEQ ID NO 1]
EphB receptors
  Stable binding of EphB receptors in pull-down: stably bind EphB receptors
EphB1; 5 μM peptide
  Inhibition of EphB1 binding of phage clones isolated by panning on EphB1: inhibited EphB1 binding of the phage clones isolated by panning on EphB1
EphB1; concentration-dependent
  Inhibition of binding of the corresponding phage clone to EphB1: efficiently inhibited binding
